# Read-outs that look alike come from different tables or passages of the source.
# How the values were obtained:
# [1] = cited from earlier work
# [2] = intravenous, cited from earlier work
# [3] = system: E. coli; assay: Antibacterial activity, E. coli titer in wells with human lung epithelial cells; assay type: cell-based; settings: saline
# Experimental: The experimental procedure is followed:
# a). Prepare a monolayer of normal human lung epithelial cells.
# b). Add 60 μL of E. coli culture into the well with lung epithelial cells on the 96-well plate.
# c). […] Incubate at 37° C. overnight.
# d). Aspirate the cultured mixture and diluted with LB media (1:2).
# e). Take 20 μL of diluted mixture and plate on an LB plate for an initial titration of E. coli. The E. coli plates were incubated at 37° C. overnight.
# f). Various dilutions were made according to the initial titer of each mixture so as to determine the accurate titer in each well. A duplicated set of tests was conducted for each treatment.
# g). The titer of E. coli was calculated by multiplying the number of colonies grown on each plate by a dilution factor for each well tested.
smiles,measurement,setting,value
CC(C)=CCN1CCC2(C)c3cc(O)ccc3CC1C2C (stereo not drawn) [pentazocin],Octanol/water partition coefficient Po/w,[1]; in octanol/pH 7.4 isotonic phosphate buffer at 37° C. (footnote a on the Log value),150
CCCCC(=O)OCCOCn1cnc2c(=O)[nH]c(N)nc21 [valeryl acyclovir],Log Po/w,[1]; pH 7.4,0.30
same,Octanol/water partition coefficient Po/w,[1]; pH 7.4,2.01
CC(CN1c2ccccc2Sc2ccccc21)N(C)C (stereo not drawn) [promethazine],Log Po/w,[1]; in octanol/pH 7.4 isotonic phosphate buffer at 37° C.,3.10
CCCCNc1ccc(C(=O)OCCN(C)C)cc1 [tetracaine],Log Po/w,[1]; octanol/water,1.90
CC(=O)O[C@H]1C(=O)[C@@]2(C)[C@H]([C@H](OC(=O)c3ccccc3)[C@]3(O)C[C@H](OC(=O)[C@H](O)[C@@H](NC(=O)c4ccccc4)c4ccccc4)C(C)=C1C3(C)C)[C@]1(OC(C)=O)CO[C@@H]1C[C@@H]2O [paclitaxel],systemic toxicities,[2],cardiac toxicity and neurotoxicity
same,systemic toxicities,[2]; listed as Taxol,high systemic toxicities
"Clc1cccc(Cl)c1N=C1NCCN1 [^3 H-clonidine, clonidine]",Log Po/w,[1]; octanol/water,1.4
O=C(O)c1cn(C2CC2)c2cc(N3CCNCC3)c(F)cc2c1=O [Ciprofloxacin],E. coli titer,[3]; 0.05 mg/mL,0 colonies/ml
same,E. coli titer,[3]; 0.1 mg/mL,0 colonies/ml
same,E. coli titer,[3]; 0.6 mg/mL,0 colonies/ml
CCCCCC(=O)OCCOCn1cnc2c(=O)[nH]c(N)nc21 [hexanoyl acyclovir],Log Po/w,[1]; pH 7.4,0.93
same,Octanol/water partition coefficient Po/w,[1]; pH 7.4,8.58
"c1ccc2cc3ccccc3cc2c1 [^14 C-anthracene, anthracene]",Log Po/w,[1]; octanol/water,4.5
"CCCCC(CC)COC(=O)c1ccc(N(C)C)cc1 (stereo not drawn) [^14 C-padimate-o, padimate-o]",Log Po/w,[1]; octanol/water,6.6
